In patent US20260001871A1, “TRIAZOLE DERIVATIVES AS MODULATORS OF MAS-RELATED G-PROTEIN RECEPTOR D” (ESCIENT PHARMACEUTICALS, INC., priority 2022, published 2026):

Biological target: human MRGPRD (Homo sapiens, UniProt Q8TDS7)
Test: MRGPRD antagonist activity, IP-One HTRF assay in CHO cells stably expressing human MRGPRD (versus 100 μM β-Alanine agonist)
Assay type: cell-based
Method in brief: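 CHO cells stably expressing human MRGPRD, plated overnight at 37 °C, were treated with antagonist plus agonist in Tris-HCl/NaCl/LiCl buffer pH 8, incubated 1 h at 37 °C then 1 h at room temperature. IP-1 accumulation read by HTRF; IC50 and percent antagonism of maximum efficacy averaged, SEM reported.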

human MRGPRD, sequence (Q8TDS7 whole entry): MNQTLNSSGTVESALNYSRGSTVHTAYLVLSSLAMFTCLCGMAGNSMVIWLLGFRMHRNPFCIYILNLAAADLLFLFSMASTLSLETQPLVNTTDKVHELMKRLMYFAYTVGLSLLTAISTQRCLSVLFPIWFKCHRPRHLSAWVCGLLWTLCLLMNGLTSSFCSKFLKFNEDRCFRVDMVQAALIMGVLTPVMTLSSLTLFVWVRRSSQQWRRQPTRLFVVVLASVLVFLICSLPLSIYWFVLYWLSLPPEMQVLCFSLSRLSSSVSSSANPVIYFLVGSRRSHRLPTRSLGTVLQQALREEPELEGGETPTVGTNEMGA

Row | Structure (SMILES) | IC50 [µM]
1 | CC(C)C(=O)c1ccc(-c2ccc(-n3nnc(C(=O)Nc4ccncc4)c3C3CC3)cc2)cc1 [Compound 7-74] | 0.1 to 0.5
2 | COCc1ccc(-c2ccc(-n3nnc(C(=O)Nc4ccnc(C)c4)c3C3CC3)cc2)cn1 [Compound 15-21] | 0.5 to 1
3 | Cc1cncc(CNC(=O)c2nnn(-c3ccc(-c4c(C)nn(-c5ccccc5)c4C)cc3)c2C2CC2)c1 [Compound 9-12] | 0.1 to 0.5
4 | CC(C)C(NC(=O)c1nnn(-c2ccc(-c3ccccc3)cc2)c1C1CC1)c1cn[nH]c1 (centres unmarked) [Compound 14-81] | > 3
5 | Cc1cc(C#N)ccc1-c1ccc(-n2nnc(C(=O)NC3(c4cncc(Cl)c4)CC3)c2C2CC2)cc1 [Compound 18-16] | 0.5 to 1
6 | O=C(Nc1ccncc1)c1nnn(-c2ccc(-c3ccnn3-c3ccccc3)cc2)c1C1CC1 [Compound 7-156] | 0.5 to 1
7 | N#Cc1ccc(-c2ccc(-n3nnc(C(=O)Nc4ccnc(F)c4)c3C3CC3)cc2)cc1F [Compound 9-36] | 0.1 to 0.5
8 | CCn1cc(-c2ccc(-n3nnc(C(=O)Nc4ccncc4)c3C3CC3)cc2)cn1 [Compound 7-97] | 0.1 to 0.5
9 | O=C(Nc1ccncc1)c1nnn(-c2cccc(-c3cnn(C4CCC4)c3)c2)c1C1CC1 [Compound 7-243] | 0.5 to 1
10 | CC(=O)c1ccc(-n2nnc(C(=O)Nc3ccncc3)c2C2CC2)cc1 [Compound 2-10] | 1 to 3
11 | CC(NC(=O)c1nnn(-c2ccc(-c3ccccc3)cc2)c1C1CC1)c1ccn(C)n1 (centres unmarked) [Compound 14-33] | 1 to 3
12 | O=C(Nc1ccncc1)c1nnn(-c2cccc(-c3cnn4c3CCC4)c2)c1C1CC1 [Compound 7-283] | 0.5 to 1
13 | COc1ccc(-n2nnc(C(=O)Nc3ccncc3)c2C2CC2)cc1 [Compound 2-4, 5-cyclopropyl-1-(4-methoxyphenyl)-N-(pyridin-4-yl)-1H-1,2,3-triazole-4-carboxamide] | 0.5 to 1
14 | O=C(Nc1ccncc1)c1nnn(C2CCCC2)c1C1CC1 [Compound 6-5] | 1 to 3
15 | Cc1cc(NC(=O)c2nnn(-c3ccc(-c4ccc(C#N)cc4)cc3)c2C2CC2)ccn1 [Compound 7-61] | 0.1 to 0.5
16 | Cc1cc(NC(=O)c2nnn(-c3ccc(-c4ccc(C#N)cc4C)cc3)c2C2CC2)ccn1 [Compound 7-52] | 0.1 to 0.5
17 | O=C(Nc1ccncc1)c1nnn(-c2cccc(-c3ccccc3)c2)c1C1CC1 [Compound 4-11] | 1 to 3
18 | CC(NC(=O)c1nnn(-c2ccc(-c3ccccc3)cc2)c1C1CC1)c1cccnc1 (centres unmarked) [Compound 14-49] | 1 to 3
19 | Cc1c(NC(=O)c2nnn(-c3ccc(-c4ccccc4)cc3)c2C2CC2)nn(C)c1C [Compound 14-71] | > 3
20 | CS(=O)(=O)c1ccc(-c2ccc(-n3nnc(C(=O)Nc4ccncc4)c3C3CC3)cc2)cc1 [Compound 7-93] | 0.1 to 0.5
21 | Cc1nn(C)c(C)c1-c1ccc(-n2nnc(C(=O)Nc3ccncc3)c2C(C)C)cc1 [Compound 17-10] | < 0.1
22 | CCc1ccccc1-n1nnc(C(=O)Nc2ccncc2)c1C1CC1 [Compound 3-3] | 1 to 3
23 | Cc1ccc(-n2nnc(C(=O)Nc3ccnc(C(F)(F)F)c3)c2C(C)C)cc1 [Compound 24-1, 5-isopropyl-1-(p-tolyl)-N-(2-(trifluoromethyl)pyridin-4-yl)-1H-1,2,3-triazole-4-carboxamide] | 1 to 3
24 | O=C(Nc1ccncc1)c1nnn(-c2ccc(-c3ccccc3Cl)cc2)c1C1CC1 [Compound 7-145] | 0.5 to 1
25 | CCn1cc(CNC(=O)c2nnn(-c3ccc(-c4ccc(C#N)cc4)cn3)c2C2CC2)cn1 [Compound 22-4] | 1 to 3
26 | CCc1ccc(-c2cccc(-n3nnc(C(=O)Nc4ccncc4)c3C3CC3)c2)cc1 [Compound 7-284] | 0.5 to 1
27 | Cn1ncc2c1CCCC2NC(=O)c1nnn(-c2ccc(-c3ccccc3)cc2)c1C1CC1 (centres unmarked) [Compound 14-38] | 1 to 3
28 | CC(C)n1nc(C(F)(F)F)cc1-c1ccc(-n2nnc(C(=O)Nc3ccncc3)c2C2CC2)cc1 [Compound 7-157] | 0.5 to 1
29 | Cc1nc(C(C)NC(=O)c2nnn(-c3ccc(-c4ccccc4)cc3)c2C2CC2)cs1 (centres unmarked) [Compound 14-13] | > 3
